Laboratory results taken from ChEMBL document CHEMBL1201862, “PubChem BioAssay data set” (2004).
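Grown in 96-well plates, cells were treated for 48 hours with each compound at five concentrations. Insufficient inhibition: endpoint recorded as highest concentration tested. GI50 = concentration required for 50% inhibition of growth.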 Calls of active or inactive are those of the source. Cut-off read from the data, not from the text of the source: active = GI50 up to about 1.1 µM and inactive = higher.

Experiments:
Experiment in all cases: growth of human tumour cells (NCI), 48 h
A498 = system: A498
A549 = system: A549
ACHN = system: ACHN
CCRF-CEM = system: CCRF-CEM
COLO 205 = system: COLO 205
DLD-1 = system: DLD-1
DMS-114 = system: DMS-114
DMS-273 = system: DMS-273
EKVX = system: EKVX
HCT-116 = system: HCT-116
HCT-15 = system: HCT-15
HL-60 = system: HL-60
HOP-18 = system: HOP-18
HOP-62 = system: HOP-62
HOP-92 = system: HOP-92
K562 = system: K562
KM-20L2 = system: KM-20L2
LOX IMVI = system: LOX IMVI
LXFL 529 = system: LXFL 529
M14 = system: M14
MOLT-4 = system: MOLT-4
NCI-H23 = system: NCI-H23
NCI-H460 = system: NCI-H460
NCI-H522 = system: NCI-H522
OVCAR-8 = system: OVCAR-8
RPMI-8226 = system: RPMI-8226
RXF 393 = system: RXF 393
RXF 631 = system: RXF 631
SF-268 = system: SF-268
SF-539 = system: SF-539
SK-MEL-28 = system: SK-MEL-28
SK-MEL-5 = system: SK-MEL-5
SK-OV-3 = system: SK-OV-3
SN12C = system: SN12C
SW-620 = system: SW-620
TK-10 = system: TK-10
U-251 = system: U-251
UO-31 = system: UO-31
XF498 = system: XF498
786-0 = system: 786-0
CAKI-1 = system: CAKI-1
HCC 2998 = system: HCC 2998
HT-29 = system: HT-29
IGROV-1 = system: IGROV-1
M19-MEL = system: M19-MEL
Malme-3M = system: Malme-3M
NCI-H226 = system: NCI-H226
OVCAR-3 = system: OVCAR-3
OVCAR-4 = system: OVCAR-4
OVCAR-5 = system: OVCAR-5
SF-295 = system: SF-295
SK-MEL-2 = system: SK-MEL-2
SNB-19 = system: SNB-19
SNB-75 = system: SNB-75
SNB-78 = system: SNB-78
UACC-257 = system: UACC-257
UACC-62 = system: UACC-62
KM12 = system: KM12
SR = system: SR

CCc1nc2ccccc2c(=O)n1/N=C(\N=N\c1ccc(Cl)cc1)c1ccc(N(C)C)cc1
GI50 (A498): 38.3 µM (inactive) | GI50 (A549): 42.7 µM (inactive) | GI50 (ACHN): 28.7 µM (inactive) | GI50 (CCRF-CEM): 27.6 µM (inactive) | GI50 (COLO 205): 27.2 µM (inactive) | GI50 (DLD-1): 30.1 µM (inactive) | GI50 (DMS-114): 12.2 µM (inactive) | GI50 (DMS-273): 32.3 µM (inactive) | GI50 (EKVX): 28.1 µM (inactive) | GI50 (HCT-116): 17.7 µM (inactive) | GI50 (HCT-15): 29.2 µM | GI50 (HL-60): 20.5 µM (inactive) | GI50 (HOP-18): 25.5 µM (inactive) | GI50 (HOP-62): 13.3 µM (inactive) | GI50 (HOP-92): 13.7 µM (inactive) | GI50 (K562): 16.7 µM (inactive) | GI50 (KM-20L2): 23.6 µM (inactive) | GI50 (LOX IMVI): 47.5 µM (inactive) | GI50 (LXFL 529): 23.7 µM (inactive) | GI50 (M14): 33.3 µM (inactive) | GI50 (MOLT-4): 20.6 µM (inactive) | GI50 (NCI-H23): 22.8 µM (inactive) | GI50 (NCI-H460): 24.5 µM (inactive) | GI50 (NCI-H522): 22.3 µM (inactive) | GI50 (OVCAR-8): 34.9 µM (inactive) | GI50 (RPMI-8226): 17.4 µM (inactive) | GI50 (RXF 393): 56 µM (inactive) | GI50 (RXF 631): 67.6 µM (inactive) | GI50 (SF-268): 32.1 µM (inactive) | GI50 (SF-539): 30.3 µM (inactive) | GI50 (SK-MEL-28): 30.1 µM (inactive) | GI50 (SK-MEL-5): 21.9 µM (inactive) | GI50 (SK-OV-3): 27.7 µM (inactive) | GI50 (SN12C): 27.7 µM (inactive) | GI50 (SW-620): 45.1 µM (inactive) | GI50 (TK-10): 61.9 µM (inactive) | GI50 (U-251): 27.3 µM (inactive) | GI50 (UO-31): 12.2 µM (inactive) | GI50 (XF498): 25.1 µM (inactive)

COC(=O)C(=O)C(C#N)c1nc2ccccc2s1 (stereo unspecified)
GI50 (786-0): > 100 µM (inactive) | GI50 (A498): > 100 µM (inactive) | GI50 (A549): > 100 µM (inactive) | GI50 (ACHN): > 100 µM (inactive) | GI50 (CAKI-1): > 100 µM (inactive) | GI50 (CCRF-CEM): 75.2 µM (inactive) | GI50 (COLO 205): > 100 µM (inactive) | GI50 (DLD-1): 56.4 µM (inactive) | GI50 (DMS-114): > 100 µM (inactive) | GI50 (DMS-273): > 100 µM (inactive) | GI50 (EKVX): > 100 µM (inactive) | GI50 (HCC 2998): > 100 µM (inactive) | GI50 (HCT-116): 97.1 µM (inactive) | GI50 (HCT-15): 57 µM | GI50 (HL-60): 92.9 µM (inactive) | GI50 (HOP-62): > 100 µM (inactive) | GI50 (HOP-92): > 100 µM (inactive) | GI50 (HT-29): 66.4 µM (inactive) | GI50 (IGROV-1): > 100 µM (inactive) | GI50 (K562): 57.4 µM (inactive) | GI50 (KM-20L2): > 100 µM (inactive) | GI50 (LOX IMVI): > 100 µM (inactive) | GI50 (LXFL 529): > 100 µM (inactive) | GI50 (M14): > 100 µM (inactive) | GI50 (M19-MEL): > 100 µM (inactive) | GI50 (MOLT-4): 60.4 µM (inactive) | GI50 (Malme-3M): > 100 µM (inactive) | GI50 (NCI-H226): 23.9 µM (inactive) | GI50 (NCI-H23): > 100 µM (inactive) | GI50 (NCI-H460): 63.4 µM (inactive) | GI50 (NCI-H522): > 100 µM (inactive) | GI50 (OVCAR-3): > 100 µM (inactive) | GI50 (OVCAR-4): > 100 µM (inactive) | GI50 (OVCAR-5): > 100 µM (inactive) | GI50 (OVCAR-8): > 100 µM (inactive) | GI50 (RPMI-8226): > 100 µM (inactive) | GI50 (RXF 393): > 100 µM (inactive) | GI50 (RXF 631): > 100 µM (inactive) | GI50 (SF-268): > 100 µM (inactive) | GI50 (SF-295): > 100 µM (inactive) | GI50 (SF-539): 98.9 µM (inactive) | GI50 (SK-MEL-28): > 100 µM (inactive) | GI50 (SK-MEL-2): > 100 µM (inactive) | GI50 (SK-MEL-5): > 100 µM (inactive) | GI50 (SK-OV-3): > 100 µM (inactive) | GI50 (SN12C): > 100 µM (inactive) | GI50 (SNB-19): > 100 µM (inactive) | GI50 (SNB-75): 42.9 µM (inactive) | GI50 (SNB-78): > 100 µM (inactive) | GI50 (SW-620): > 100 µM (inactive) | GI50 (TK-10): > 100 µM (inactive) | GI50 (UACC-257): > 100 µM (inactive) | GI50 (UACC-62): > 100 µM (inactive) | GI50 (UO-31): 39.8 µM (inactive) | GI50 (XF498): > 100 µM (inactive)

CCOC(=O)c1ccc(O)cc1 [ETHYLPARABEN]
GI50 (786-0): > 100 µM (inactive) | GI50 (A549): > 100 µM (inactive) | GI50 (ACHN): > 100 µM (inactive) | GI50 (CAKI-1): > 100 µM (inactive) | GI50 (CCRF-CEM): > 100 µM (inactive) | GI50 (COLO 205): > 100 µM (inactive) | GI50 (DLD-1): > 100 µM (inactive) | GI50 (DMS-114): > 100 µM (inactive) | GI50 (DMS-273): 55.5 µM (inactive) | GI50 (EKVX): > 100 µM (inactive) | GI50 (HCC 2998): > 100 µM (inactive) | GI50 (HCT-116): > 100 µM (inactive) | GI50 (HCT-15): > 100 µM | GI50 (HL-60): > 100 µM (inactive) | GI50 (HOP-62): > 100 µM (inactive) | GI50 (HOP-92): > 100 µM (inactive) | GI50 (HT-29): > 100 µM (inactive) | GI50 (IGROV-1): > 100 µM (inactive) | GI50 (K562): > 100 µM (inactive) | GI50 (KM-20L2): > 100 µM (inactive) | GI50 (KM12): > 100 µM (inactive) | GI50 (LOX IMVI): > 100 µM (inactive) | GI50 (M14): > 100 µM (inactive) | GI50 (M19-MEL): > 100 µM (inactive) | GI50 (MOLT-4): > 100 µM (inactive) | GI50 (Malme-3M): > 100 µM (inactive) | GI50 (NCI-H226): > 100 µM (inactive) | GI50 (NCI-H23): > 100 µM (inactive) | GI50 (NCI-H460): > 100 µM (inactive) | GI50 (NCI-H522): > 100 µM (inactive) | GI50 (OVCAR-4): > 100 µM (inactive) | GI50 (OVCAR-5): > 100 µM (inactive) | GI50 (RPMI-8226): > 100 µM (inactive) | GI50 (RXF 393): > 100 µM (inactive) | GI50 (RXF 631): > 100 µM (inactive) | GI50 (SF-268): > 100 µM (inactive) | GI50 (SF-295): > 100 µM (inactive) | GI50 (SF-539): > 100 µM (inactive) | GI50 (SK-MEL-28): > 100 µM (inactive) | GI50 (SK-MEL-2): > 100 µM (inactive) | GI50 (SK-OV-3): > 100 µM (inactive) | GI50 (SNB-19): > 100 µM (inactive) | GI50 (SNB-75): > 100 µM (inactive) | GI50 (SNB-78): > 100 µM (inactive) | GI50 (SR): > 100 µM (inactive) | GI50 (SW-620): > 100 µM (inactive) | GI50 (TK-10): > 100 µM (inactive) | GI50 (U-251): > 100 µM (inactive) | GI50 (UACC-257): > 100 µM (inactive) | GI50 (UACC-62): > 100 µM (inactive) | GI50 (UO-31): > 100 µM (inactive) | GI50 (XF498): > 100 µM (inactive)
